Data: US20240246942A1, “KINASE INHIBITORS FOR THE TREATMENT OF NEURODEGENERATIVE DISEASES” (priority 2020, published 2024)

Tests used:
Assay in all cases: biochemical
[1] = biological target: T1, panel of 374 wild-type kinases (Homo sapiens, UniProt P08069); details: read-out: % Enzyme Activity (relative to DMSO controls), IGF1R
T1 construct: purchased Reaction Biology Corporation

[2] = biological target: T2, panel of 374 wild-type kinases (Homo sapiens, UniProt O43353); details: read-out: % Enzyme Activity (relative to DMSO controls), kinase RIPK2
T2 construct: purchased Reaction Biology Corporation
T2 sequence (O43353 whole entry): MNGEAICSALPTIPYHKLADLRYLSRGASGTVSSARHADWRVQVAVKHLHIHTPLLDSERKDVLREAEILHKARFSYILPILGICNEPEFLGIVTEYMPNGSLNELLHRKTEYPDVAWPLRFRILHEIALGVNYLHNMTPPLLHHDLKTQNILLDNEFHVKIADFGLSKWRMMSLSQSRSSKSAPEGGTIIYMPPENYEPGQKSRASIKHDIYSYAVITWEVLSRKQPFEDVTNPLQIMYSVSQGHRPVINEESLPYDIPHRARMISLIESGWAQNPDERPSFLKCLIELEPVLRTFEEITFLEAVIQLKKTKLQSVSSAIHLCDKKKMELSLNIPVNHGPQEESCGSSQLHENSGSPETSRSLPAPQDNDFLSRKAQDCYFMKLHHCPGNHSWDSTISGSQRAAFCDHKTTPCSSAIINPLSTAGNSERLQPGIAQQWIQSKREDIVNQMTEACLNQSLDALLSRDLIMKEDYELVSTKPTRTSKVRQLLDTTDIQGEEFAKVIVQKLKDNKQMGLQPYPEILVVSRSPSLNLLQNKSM

[3] = biological target: T3, panel of 374 wild-type kinases (Homo sapiens, UniProt Q8IW41); details: read-out: % Enzyme Activity (relative to DMSO controls), MAPKAPK5/PRAK
T3 construct: purchased Reaction Biology Corporation
T3 sequence (Q8IW41 1-473): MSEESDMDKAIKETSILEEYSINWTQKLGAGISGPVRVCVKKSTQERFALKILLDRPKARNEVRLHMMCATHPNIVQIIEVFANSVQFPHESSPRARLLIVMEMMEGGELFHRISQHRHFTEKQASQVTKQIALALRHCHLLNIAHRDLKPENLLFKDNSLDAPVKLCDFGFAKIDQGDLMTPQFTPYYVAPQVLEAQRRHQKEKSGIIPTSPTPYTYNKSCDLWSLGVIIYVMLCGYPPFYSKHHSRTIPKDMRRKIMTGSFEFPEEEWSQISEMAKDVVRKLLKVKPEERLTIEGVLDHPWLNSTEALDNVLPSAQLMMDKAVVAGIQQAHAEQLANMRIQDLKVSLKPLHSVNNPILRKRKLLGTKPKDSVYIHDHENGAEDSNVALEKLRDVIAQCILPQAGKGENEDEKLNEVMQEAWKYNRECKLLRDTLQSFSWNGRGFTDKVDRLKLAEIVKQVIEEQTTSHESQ

[4] = biological target: T4, panel of 374 wild-type kinases (Homo sapiens, UniProt P36896); details: read-out: % Enzyme Activity (relative to DMSO controls), ALK4/ACVR1B
T4 construct: purchased Reaction Biology Corporation
T4 sequence (P36896 24-505): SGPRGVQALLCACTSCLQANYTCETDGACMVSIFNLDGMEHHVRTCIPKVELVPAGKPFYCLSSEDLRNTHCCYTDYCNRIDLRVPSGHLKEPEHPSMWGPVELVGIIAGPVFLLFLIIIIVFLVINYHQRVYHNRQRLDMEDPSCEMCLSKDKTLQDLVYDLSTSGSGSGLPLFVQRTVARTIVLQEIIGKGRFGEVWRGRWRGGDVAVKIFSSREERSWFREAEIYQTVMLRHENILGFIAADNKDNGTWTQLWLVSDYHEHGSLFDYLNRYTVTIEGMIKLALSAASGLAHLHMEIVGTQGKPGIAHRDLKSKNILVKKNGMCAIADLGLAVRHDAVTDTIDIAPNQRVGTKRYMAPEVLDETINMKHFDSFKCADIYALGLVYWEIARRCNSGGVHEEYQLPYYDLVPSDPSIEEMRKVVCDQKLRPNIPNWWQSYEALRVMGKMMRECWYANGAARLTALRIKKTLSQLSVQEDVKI

[5] = biological target: T5, panel of 374 wild-type kinases (Homo sapiens, UniProt P45983); details: JNK1, read-out: % Enzyme Activity (relative to DMSO controls)
T5 construct: purchased Reaction Biology Corporation
T5 sequence (P45983 whole entry): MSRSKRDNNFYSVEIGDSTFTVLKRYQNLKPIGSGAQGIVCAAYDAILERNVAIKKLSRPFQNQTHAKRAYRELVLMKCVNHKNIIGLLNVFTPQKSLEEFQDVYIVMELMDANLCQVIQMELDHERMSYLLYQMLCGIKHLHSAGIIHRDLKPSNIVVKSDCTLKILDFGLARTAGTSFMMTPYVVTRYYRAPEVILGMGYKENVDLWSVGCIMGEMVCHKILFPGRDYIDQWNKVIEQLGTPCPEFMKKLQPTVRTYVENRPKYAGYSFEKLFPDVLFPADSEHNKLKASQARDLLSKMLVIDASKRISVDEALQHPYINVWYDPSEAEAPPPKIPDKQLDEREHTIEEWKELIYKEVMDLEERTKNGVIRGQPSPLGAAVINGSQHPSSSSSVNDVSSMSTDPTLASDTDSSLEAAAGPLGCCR

[6] = biological target: T6, panel of 374 wild-type kinases (Homo sapiens, UniProt O14965); details: read-out: % Enzyme Activity (relative to DMSO controls), Aurora A
T6 construct: purchased Reaction Biology Corporation
T6 sequence (O14965 1-403): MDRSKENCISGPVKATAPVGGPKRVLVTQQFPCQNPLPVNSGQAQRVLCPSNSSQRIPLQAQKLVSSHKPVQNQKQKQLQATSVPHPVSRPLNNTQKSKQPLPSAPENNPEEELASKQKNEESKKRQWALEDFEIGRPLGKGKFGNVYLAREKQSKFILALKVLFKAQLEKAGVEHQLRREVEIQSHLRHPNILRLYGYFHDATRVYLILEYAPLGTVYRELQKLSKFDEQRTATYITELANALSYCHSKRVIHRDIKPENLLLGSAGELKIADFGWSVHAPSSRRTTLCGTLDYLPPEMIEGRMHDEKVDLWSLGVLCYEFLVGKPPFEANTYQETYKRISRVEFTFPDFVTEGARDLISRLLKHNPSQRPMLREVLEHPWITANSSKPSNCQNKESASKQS

[7] = biological target: T7, panel of 374 wild-type kinases (Homo sapiens, UniProt O43318); details: read-out: % Enzyme Activity (relative to DMSO controls), kinase TAK1
T7 construct: purchased Reaction Biology Corporation
T7 sequence (O43318 1-606): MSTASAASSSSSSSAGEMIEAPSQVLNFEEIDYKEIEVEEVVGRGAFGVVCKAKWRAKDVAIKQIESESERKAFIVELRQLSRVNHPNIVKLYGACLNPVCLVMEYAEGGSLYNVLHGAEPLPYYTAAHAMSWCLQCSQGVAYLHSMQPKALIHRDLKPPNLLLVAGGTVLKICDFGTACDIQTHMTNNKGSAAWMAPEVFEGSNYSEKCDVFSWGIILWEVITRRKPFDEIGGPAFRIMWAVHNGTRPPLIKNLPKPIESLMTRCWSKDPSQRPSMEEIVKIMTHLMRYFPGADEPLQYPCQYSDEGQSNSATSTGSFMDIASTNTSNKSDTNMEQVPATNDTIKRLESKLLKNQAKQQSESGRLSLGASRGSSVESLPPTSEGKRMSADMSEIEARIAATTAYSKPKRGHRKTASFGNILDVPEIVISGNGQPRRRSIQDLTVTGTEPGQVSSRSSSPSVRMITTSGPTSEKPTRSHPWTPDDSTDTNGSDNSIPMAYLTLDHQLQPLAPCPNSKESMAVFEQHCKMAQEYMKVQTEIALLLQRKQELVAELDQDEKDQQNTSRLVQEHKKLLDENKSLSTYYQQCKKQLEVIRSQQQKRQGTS

[8] = biological target: T8, panel of 374 wild-type kinases (Homo sapiens, UniProt Q9NY57); details: read-out: % Enzyme Activity (relative to DMSO controls), kinase STK32B/YANK2
T8 construct: purchased Reaction Biology Corporation
T8 sequence (Q9NY57 whole entry): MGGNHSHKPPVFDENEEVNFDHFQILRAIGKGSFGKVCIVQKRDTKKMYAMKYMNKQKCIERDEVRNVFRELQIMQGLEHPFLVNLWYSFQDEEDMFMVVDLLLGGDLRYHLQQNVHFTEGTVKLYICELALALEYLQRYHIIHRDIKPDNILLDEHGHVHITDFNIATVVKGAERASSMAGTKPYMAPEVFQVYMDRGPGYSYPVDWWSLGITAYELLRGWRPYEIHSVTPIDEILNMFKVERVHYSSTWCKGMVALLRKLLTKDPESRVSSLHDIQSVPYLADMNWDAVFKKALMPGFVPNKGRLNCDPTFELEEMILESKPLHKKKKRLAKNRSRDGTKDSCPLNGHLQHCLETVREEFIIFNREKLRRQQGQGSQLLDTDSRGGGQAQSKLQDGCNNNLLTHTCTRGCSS

[9] = biological target: T9, panel of 374 wild-type kinases (Homo sapiens, UniProt Q16644); details: read-out: % Enzyme Activity (relative to DMSO controls), MAPKAPK3
T9 construct: purchased Reaction Biology Corporation
T9 sequence (Q16644 whole entry): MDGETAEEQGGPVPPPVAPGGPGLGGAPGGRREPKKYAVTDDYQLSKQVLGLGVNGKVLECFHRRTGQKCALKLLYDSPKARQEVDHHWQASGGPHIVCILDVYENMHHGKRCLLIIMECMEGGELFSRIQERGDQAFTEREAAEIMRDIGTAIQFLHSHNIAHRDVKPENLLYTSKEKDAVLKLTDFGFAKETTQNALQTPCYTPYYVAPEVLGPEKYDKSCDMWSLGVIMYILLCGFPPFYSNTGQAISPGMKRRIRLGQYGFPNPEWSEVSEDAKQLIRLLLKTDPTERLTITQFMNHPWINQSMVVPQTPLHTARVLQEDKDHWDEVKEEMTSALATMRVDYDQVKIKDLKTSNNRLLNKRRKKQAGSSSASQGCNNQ

[10] = biological target: T10, panel of 374 wild-type kinases (Homo sapiens, UniProt O94804); details: read-out: % Enzyme Activity (relative to DMSO controls), LOK/STK10
T10 construct: purchased Reaction Biology Corporation
T10 sequence (O94804 whole entry): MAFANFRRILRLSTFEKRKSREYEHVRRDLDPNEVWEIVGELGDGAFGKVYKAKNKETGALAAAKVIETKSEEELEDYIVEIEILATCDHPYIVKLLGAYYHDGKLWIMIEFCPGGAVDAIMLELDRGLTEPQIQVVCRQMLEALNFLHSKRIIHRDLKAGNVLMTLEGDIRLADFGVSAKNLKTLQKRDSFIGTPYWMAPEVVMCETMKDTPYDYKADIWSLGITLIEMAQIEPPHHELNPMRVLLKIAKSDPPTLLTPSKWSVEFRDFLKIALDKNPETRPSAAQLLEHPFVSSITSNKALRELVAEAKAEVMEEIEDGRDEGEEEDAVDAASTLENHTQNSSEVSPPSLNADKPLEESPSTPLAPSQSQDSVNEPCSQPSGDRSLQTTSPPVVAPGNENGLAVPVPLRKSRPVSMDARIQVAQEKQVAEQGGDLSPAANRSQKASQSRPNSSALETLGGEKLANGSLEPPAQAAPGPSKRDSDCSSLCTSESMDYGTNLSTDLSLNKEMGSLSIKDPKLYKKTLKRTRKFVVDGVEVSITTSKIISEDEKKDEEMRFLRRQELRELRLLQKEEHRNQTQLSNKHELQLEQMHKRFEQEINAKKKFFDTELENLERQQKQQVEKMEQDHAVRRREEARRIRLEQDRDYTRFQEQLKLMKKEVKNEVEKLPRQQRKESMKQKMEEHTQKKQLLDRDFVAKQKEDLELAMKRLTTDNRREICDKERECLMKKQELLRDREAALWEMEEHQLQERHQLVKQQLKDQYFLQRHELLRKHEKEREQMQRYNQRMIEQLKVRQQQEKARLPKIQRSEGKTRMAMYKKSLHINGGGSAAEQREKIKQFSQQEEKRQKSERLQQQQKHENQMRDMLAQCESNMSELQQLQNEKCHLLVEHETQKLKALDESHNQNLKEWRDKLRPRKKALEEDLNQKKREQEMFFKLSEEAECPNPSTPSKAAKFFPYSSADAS

T1 sequence (P08069 31-1367): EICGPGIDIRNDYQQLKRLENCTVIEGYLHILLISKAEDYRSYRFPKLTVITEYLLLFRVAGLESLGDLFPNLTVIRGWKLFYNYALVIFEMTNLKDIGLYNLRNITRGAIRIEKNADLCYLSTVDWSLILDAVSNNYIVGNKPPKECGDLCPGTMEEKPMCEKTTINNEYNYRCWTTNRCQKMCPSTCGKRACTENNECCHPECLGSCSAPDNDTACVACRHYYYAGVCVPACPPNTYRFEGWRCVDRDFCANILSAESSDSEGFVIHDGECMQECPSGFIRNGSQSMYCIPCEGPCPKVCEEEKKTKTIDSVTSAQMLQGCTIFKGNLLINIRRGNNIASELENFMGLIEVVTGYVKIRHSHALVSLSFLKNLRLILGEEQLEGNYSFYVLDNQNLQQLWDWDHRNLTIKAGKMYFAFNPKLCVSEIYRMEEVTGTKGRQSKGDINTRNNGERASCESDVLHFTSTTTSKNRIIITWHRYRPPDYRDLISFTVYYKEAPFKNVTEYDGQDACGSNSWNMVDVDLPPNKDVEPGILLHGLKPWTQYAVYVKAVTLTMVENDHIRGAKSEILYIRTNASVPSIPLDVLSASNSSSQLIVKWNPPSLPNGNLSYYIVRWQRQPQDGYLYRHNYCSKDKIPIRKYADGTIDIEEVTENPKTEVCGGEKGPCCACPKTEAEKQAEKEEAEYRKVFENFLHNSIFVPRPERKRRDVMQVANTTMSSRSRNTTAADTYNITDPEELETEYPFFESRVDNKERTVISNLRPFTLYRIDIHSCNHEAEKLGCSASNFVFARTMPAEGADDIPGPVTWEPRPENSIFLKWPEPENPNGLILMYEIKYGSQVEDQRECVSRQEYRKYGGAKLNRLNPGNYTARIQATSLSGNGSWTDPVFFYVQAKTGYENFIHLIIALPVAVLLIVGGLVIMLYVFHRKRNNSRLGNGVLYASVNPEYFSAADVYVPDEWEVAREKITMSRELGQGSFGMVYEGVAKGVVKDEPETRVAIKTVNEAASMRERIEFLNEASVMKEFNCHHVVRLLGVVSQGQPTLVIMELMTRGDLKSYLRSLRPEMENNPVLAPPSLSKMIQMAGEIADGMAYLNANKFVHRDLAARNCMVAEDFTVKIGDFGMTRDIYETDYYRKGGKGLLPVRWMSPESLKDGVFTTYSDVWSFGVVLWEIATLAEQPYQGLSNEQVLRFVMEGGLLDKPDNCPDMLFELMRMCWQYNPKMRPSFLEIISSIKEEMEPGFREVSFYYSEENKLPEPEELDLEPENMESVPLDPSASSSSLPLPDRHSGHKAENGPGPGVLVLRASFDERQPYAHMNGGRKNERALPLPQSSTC

SMILES	remaining activity at 5 µM [1]	remaining activity at 5 µM [2]	remaining activity at 5 µM [3]	remaining activity at 5 µM [4]	remaining activity at 5 µM [5]	remaining activity at 5 µM [6]	remaining activity at 5 µM [7]	remaining activity at 5 µM [8]	remaining activity at 5 µM [9]	remaining activity at 5 µM [10]	remaining activity at 10 µM ([1]; 10 uM)	remaining activity at 10 µM ([2]; 10 uM)	remaining activity at 10 µM ([3]; 10 uM)	remaining activity at 10 µM ([4]; 10 uM)	remaining activity at 10 µM ([5]; 10 uM)	remaining activity at 10 µM ([6]; 10 uM)	remaining activity at 10 µM ([7]; 10 uM)	remaining activity at 10 µM ([8]; 10 uM)	remaining activity at 10 µM ([9]; 10 uM)	remaining activity at 10 µM ([10]; 10 uM)
O=C(Nc1cnn(-c2csc(C(=O)NC3COC3)c2)c1)Nc1ccccc1Cl [Compound 17, 4-(4-(3-(2-chlorophenyl)ureido)-1H-pyrazol-1-yl)-N-(oxetan-3-yl)thiophene-2-carboxamide]	95.8%	120%	92.8%	124%	57.6%	105%	98%	122%	83.5%	87.9%	–	–	–	–	–	–	–	–	–	–
Cc1sc(C(=O)NC2COC2)cc1-n1cc(NC(=O)Nc2c(F)cccc2Cl)cn1 [Compound 27, 4-(4-(3-(2-chloro-6-fluorophenyl)ureido)-1H-pyrazol-1-yl)-5-methyl-N-(oxetan-3-yl)thiophene-2-carboxamide]	–	–	–	–	–	–	–	–	–	–	102%	89.3%	96.5%	78.5%	76.3%	88.4%	98.4%	89.8%	110%	96.4%
O=C(Nc1cnn(-c2csc(C(=O)NC3COC3)c2)c1)Nc1c(F)cccc1Cl [Compound 25, 4-(4-(3-(2-chloro-6-fluorophenyl)ureido)-1H-pyrazol-1-yl)-N-(oxetan-3-yl)thiophene-2-carboxamide]	94.9%	80.2%	99.7%	82%	49.1%	83.1%	109%	103%	95.6%	89%	–	–	–	–	–	–	–	–	–	–
